Results on one molecule are retold here after ChEMBL document CHEMBL1158277, “N -(Indol-3-ylethyl)-2-hydroxy-3-methylpentanamide, a Novel Indole Derivative from Xenorhabdus nematophilus” (J Nat Prod, 1996).

The source made the active and inactive calls. The rule behind the calls is not given here.

This assay concerns Bacillus subtilis. Kind of assay: Antibacterial activity against Bacillus subtilis at 100 ug/mL. It counts as functional, organism-based.

Turning to `CC[C@H](C)[C@@H](O)C(=O)NCCc1c[nH]c2ccccc12`, the outcome was inactive.
